In patent publication US20010047099A1, “4-aminopicolinates and their use as herbicides” (priority 2000, published 2001):

Key:
Format in all cases: in vivo
[1] = system: chickweed (Stellaria media); assay: Postemergence herbicidal activity; details: Table 1, visual, after 2 weeks
Method: (§1) Seeds of the desired test plant species were planted in Grace-Sierra MetroMix® 306 planting mixture, which typically has a pH of 6.0 to 6.8 and an organic matter content of about 30 percent, in plastic pots with a surface area of 64 square centimeters. When required to ensure good germination and healthy plants, a fungicide treatment and/or other chemical or physical treatment was applied. The plants were grown for 7-21 days in a greenhouse with an approximate 15 hr photoperiod which was maintained at about 23-29° C. during the day and 22-28° C. during the night. Nutrients and water were added on a regular basis and supplemental lighting was provided with overhead metal halide 1000-Watt lamps as necessary. The plants were employed for testing when they reached the first or second true leaf stage.
(§2) A weighed amount, determined by the highest rate to be tested, of each test compound was placed in a 20 mL glass vial and was dissolved in 4 mL of a 97:3 v/v (volume/volume) mixture of acetone and dimethyl sulfoxide (DMSO) to obtain concentrated stock solutions. […] The concentrated stock solutions obtained were diluted with an aqueous mixture containing acetone, water, isopropyl alcohol, DMSO, Atplus 411F crop oil concentrate, and Triton X-155 surfactant in a 48.5:39:10:1.5:1.0:0.02 v/v ratio to obtain spray solutions of known concentration. The solutions containing the highest concentration to be tested were prepared by diluting 2 mL aliquots of the stock solution with 13 mL of the mixture and lower concentrations were prepared by serial dilution of the stock solution. Approximately 1.5 mL aliquots of each solution of known concentration were sprayed evenly onto each of the test plant pots using a DeVilbiss atomizer driven by compressed air pressure of 2 to 4 psi ([…]) to obtain thorough coverage of each plant. Control plants were sprayed in the same manner with the aqueous mixture. In this test an application rate of 1 ppm results in the application of approximately 1 g/Ha.
(§3) The treated plants and control plants were placed in a greenhouse as described above and watered by sub-irrigation to prevent wash-off of the test compounds. After 2 weeks the condition of the test plants as compared with that of the untreated plants was determined visually and scored on a scale of 0 to 100 percent where 0 corresponds to no injury and 100 corresponds to complete kill.

[2] = system: cocklebur (Xanthium strumarium); assay: Postemergence herbicidal activity; details: Table 1, visual, after 2 weeks
Method: as §1, §2, §3

[3] = system: wild buckwheat (Polygonum convolvulus); assay: Postemergence herbicidal activity; details: Table 1, visual, after 2 weeks
Method: as §1, §2, §3

[4] = system: pigweed (Amaranthus retroflexus); assay: Preemergence herbicidal activity; details: Table 6 (headed Post-emergent; text: preemergence), after 3 weeks; for pest or weed control at 280 ppm: rate 280 ppm
From the text: (§4) Seeds of the desired test plant species were planted in a soil matrix prepared by mixing a loam soil (43 percent silt, 19 percent clay, and 38 percent sand, with a pH of about 8.1 and an organic matter content of bout 1.5 percent) and sand in a 70 to 30 ratio. The soil matrix was contained in plastic pots with a surface area of 113 square centimeters. When required to ensure good germination and healthy plants. a fungicide treatment and/or other chemical or physical treatment was applied.
(§5) A weighed amount, determined by the highest rate to be tested, of each test compound was placed in a 20 mL glass vial and was dissolved in 4 mL of a 97:3 v/v (volume/volume) mixture of acetone and dimethyl sulfoxide to obtain concentrated stock solutions. […] The stock solutions obtained were diluted with a 99.9:0.1 mixture of water and Tween® […] surfactant to obtain application solutions of known concentration. The solutions containing the highest concentration to be tested were prepared by diluting 2 mL aliquots of the stock solution with 15 mL of the mixture and lower concentrations were prepared by serial dilution of the stock solution. A 2.5 mL aliquot of each solution of known concentration was sprayed evenly onto the soil surface (113 sq. cm) of each seeded pot using a Cornwall 5.0 mL glass syringe fitted with a TeeJet TN-3 hollow cone nozzle to obtain thorough coverage of the soil in each pot. Control pots were sprayed in the same manner with the aqueous mixture.
(§6) The treated pots and control pots were placed in a greenhouse maintained with an approximate 15 hr photoperiod and temperatures of about 23-29° C. during the day and 22-28° C. during the night. Nutrients and water were added on a regular basis and supplemental lighting was provided with overhead metal halide 1000-Watt lamps as necessary. The water was added by top-irrigation. After 3 weeks the condition of the test plants that germinated and grew as compared with that of the untreated plants that germinated and grew was determined visually and scored on a scale of 0 to 100 percent where 0 corresponds to no injury and 100 corresponds to complete kill or no germination.

[5] = system: velvetleaf (Abutilon theophrasti); assay: Preemergence herbicidal activity; details: Table 6 (headed Post-emergent; text: preemergence), after 3 weeks; for pest or weed control at 280 ppm: rate 280 ppm
From the text: as §4, §5, §6

[6] = system: morningglory (Ipomoea hederacea); assay: Preemergence herbicidal activity; details: Table 6 (headed Post-emergent; text: preemergence), after 3 weeks; for pest or weed control at 280 ppm: rate 280 ppm
From the text: as §4, §5, §6

[7] = Stellaria media, post-emergence, 336 h, rate 250 ppm, read-out: Post-emergent % Control STEME
[8] = Xanthium strumarium, post-emergence, 336 h, rate 250 ppm, read-out: Post-emergent % Control XANST
[9] = Fallopia convolvulus, post-emergence, 336 h, rate 250 ppm, read-out: Post-emergent % Control POLCO
[10] = Amaranthus retroflexus, 504 h, read-out: % Control AMARE
[11] = Abutilon theophrasti, 504 h, read-out: % Control ABUTH
[12] = Ipomoea, 504 h, read-out: % Control IPOHE

Row | Molecule | Post-emergent % Control STEME ([1]; rate 250 ppm) [%] | Post-emergent % Control XANST ([2]; rate 250 ppm) [%] | Post-emergent % Control POLCO ([3]; rate 250 ppm) [%] | % Control AMARE ([4]; rate 560 ppm) [%] | % Control ABUTH ([5]; rate 560 ppm) [%] | % Control IPOHE ([6]; rate 560 ppm) [%] | also measured
1 | COCCNc1cc(Cl)nc(C(=O)O)c1Cl [Compound 32, 4-N-methoxyethylamino-3,6-dichloropyridine-2-carboxylic acid] | 20 | 80 | 100 | 70 | 90 | 90 | –
2 | N,N-diacetyl 4-amino-3,6-dichloropyridine-2-carboxylate [Compound 13] | 100 | 95 | 80 | 100 | 95 | 95 | –
3 | Nc1cc(Oc2ccc(Cl)c(Cl)c2)nc(C(=O)O)c1Cl [Compound 51, 4-amino-3-chloro-6-(3,4-dichlorophenoxy)-pyridine-2-carboxylic acid] | – | – | – | – | – | – | pest or weed control at 250 ppm [1, 7]: 70%; pest or weed control at 250 ppm [2, 8]: 100%; pest or weed control at 250 ppm [3, 9]: 100%; pest or weed control at 280 ppm [4, 10]: 98%; pest or weed control at 280 ppm [5, 11]: 80%; pest or weed control at 280 ppm [6, 12]: 0%
4 | COC(=O)c1nc(Br)c(Br)c(N)c1Br [Compound 18, Methyl 4-amino-3,5,6-tribromopyridine-2-carboxylate] | – | – | – | – | – | – | pest or weed control at 250 ppm [1, 7]: 90%; pest or weed control at 250 ppm [2, 8]: 85%; pest or weed control at 250 ppm [3, 9]: 75%; pest or weed control at 280 ppm [4, 10]: 80%; pest or weed control at 280 ppm [5, 11]: 98%; pest or weed control at 280 ppm [6, 12]: 30%
5 | COC(=O)c1nc(Cl)cc(NC(C)=O)c1Cl [Compound 12, Methyl N-acetyl 4-amino-3,6-dichloropyridine-2-carboxylate] | – | – | – | 100 | 95 | 100 | Post-emergent % Control STEME ([1]; rate 125 ppm): 30%; Post-emergent % Control XANST ([2]; rate 125 ppm): 90%; Post-emergent % Control POLCO ([3]; rate 125 ppm): 100%
6 | C=CCNc1cc(Cl)nc(C(=O)O)c1Cl [Compound 30, 4-N-allylamino-3,6-dichloropyridine-2-carboxylic acid] | 80 | 100 | 100 | 90 | 95 | 85 | –
7 | CN(C)C=Nc1cc(Cl)nc(C(=O)O)c1Cl [Compound 40, 4-N,N-Dimethylformamidino-3,6-dichloropyridine-2-carboxylic acid] | 90 | 100 | 100 | 100 | 100 | 100 | –
8 | O=C(O)c1nc(Cl)cc(-n2cccc2)c1Cl [Compound 37, 4-pyrrolo-3,6-Dichloropyridine-2-carboxylic acid] | – | – | – | 100 | 100 | 95 | Post-emergent % Control STEME ([1]; rate 125 ppm): 70%; Post-emergent % Control XANST ([2]; rate 125 ppm): 90%; Post-emergent % Control POLCO ([3]; rate 125 ppm): 90%
9 | O=C(O)c1nc(Cl)cc(NCCO)c1Cl [Compound 31, 4-N-hydroxyethylamino-3,6-dichloropyridine-2-carboxylic acid] | 30 | 40 | 70 | 95 | 95 | 100 | –
10 | Nc1c(Cl)c(C(=O)O)nc(Cl)c1Sc1ccccc1 [Compound 24, 4-Amino-3,6-dichloro-5-phenylthiopyridine-2-carboxylate] | 50 | 60 | 50 | 20 | 50 | 30 | –
11 | Nc1c(F)c(Br)nc(C(=O)O)c1F [Compound 16, 4-Amino-3,5-difluoro-6-bromopyridine-2-carboxylic acid] | – | – | – | – | – | – | pest or weed control at 250 ppm [1, 7]: 30%; pest or weed control at 250 ppm [2, 8]: 60%; pest or weed control at 250 ppm [3, 9]: 70%; pest or weed control at 560 ppm ([4]; Amaranthus retroflexus, 504 h, rate 560 ppm, read-out: % Control AMARE): 70%; pest or weed control at 560 ppm ([5]; Abutilon theophrasti, 504 h, rate 560 ppm, read-out: % Control ABUTH): 0%; pest or weed control at 560 ppm ([6]; Ipomoea, 504 h, rate 560 ppm, read-out: % Control IPOHE): 80%
12 | CCCCOCCOC(=O)c1nc(Cl)cc(N)c1Cl [Compound 10, butoxyethyl 4-amino-3,6-dichloropyridine-2-carboxylate] | – | – | – | – | – | – | pest or weed control at 125 ppm ([1]; Stellaria media, post-emergence, 336 h, rate 125 ppm, read-out: Post-emergent % Control STEME): 50%; pest or weed control at 125 ppm ([2]; Xanthium strumarium, post-emergence, 336 h, rate 125 ppm, read-out: Post-emergent % Control XANST): 90%; pest or weed control at 125 ppm ([3]; Fallopia convolvulus, post-emergence, 336 h, rate 125 ppm, read-out: Post-emergent % Control POLCO): 100%; pest or weed control at 280 ppm [4, 10]: 100%; pest or weed control at 280 ppm [5, 11]: 100%; pest or weed control at 280 ppm [6, 12]: 100%
13 | Nc1c(F)c(Oc2ccc(Cl)c(Cl)c2)nc(C(=O)O)c1Cl [Compound 55, 4-Amino-3-chloro-5-fluoro-6-(3,4-dichlorophenoxy)pyridine-2-carboxylic acid] | – | – | – | – | – | – | pest or weed control at 250 ppm [1, 7]: 95%; pest or weed control at 250 ppm [2, 8]: 100%; pest or weed control at 250 ppm [3, 9]: 100%; pest or weed control at 250 ppm ([4]; Amaranthus retroflexus, 504 h, rate 250 ppm, read-out: % Control AMARE): 95%; pest or weed control at 250 ppm ([5]; Abutilon theophrasti, 504 h, rate 250 ppm, read-out: % Control ABUTH): 100%; pest or weed control at 250 ppm ([6]; Ipomoea, 504 h, rate 250 ppm, read-out: % Control IPOHE): 100%
14 | CC(C)Nc1cc(Cl)nc(C(=O)O)c1Cl [Compound 28, 4-N-isopropylamino-3,6-dichloropyridine-2-carboxylic acid] | 90 | 95 | 95 | 100 | 100 | 100 | –
15 | CN(O)c1cc(Cl)nc(C(=O)O)c1Cl [Compound 34, 4-N-hydroxy-N-methyl-amino-3,6-dichloropyridine-2-carboxylic acid] | – | – | – | 100 | 100 | 95 | Post-emergent % Control STEME ([1]; rate 125 ppm): 70%; Post-emergent % Control XANST ([2]; rate 125 ppm): 100%; Post-emergent % Control POLCO ([3]; rate 125 ppm): 100%
